Assay results taken from PubChem BioAssay (NCI).
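In this assay, cells in 96-well plates receive the compound at five concentrations for 48 hours. Endpoints are linearly interpolated between the surrounding concentrations. TGI is the concentration that stops growth completely.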

Key:
Experiment in all cases: NCI-60 cell line screen, 48 h
SW-620 colon = tested on: SW-620 colon
PC-3 prostate = tested on: PC-3 prostate
OVCAR-4 ovarian = tested on: OVCAR-4 ovarian
COLO 205 colon = tested on: COLO 205 colon
MOLT-4 leukemia = tested on: MOLT-4 leukemia
UACC-62 melanoma = tested on: UACC-62 melanoma
HT29 colon = tested on: HT29 colon
RXF 393 renal = tested on: RXF 393 renal
OVCAR-8 ovarian = tested on: OVCAR-8 ovarian
HOP-92 NSCLC = tested on: HOP-92 NSCLC
T-47D breast = tested on: T-47D breast
NCI-H522 lung = tested on: NCI-H522 lung
U251 CNS = tested on: U251 CNS
IGROV1 ovarian = tested on: IGROV1 ovarian
HCC-2998 colon = tested on: HCC-2998 colon
NCI-H460 lung = tested on: NCI-H460 lung
SK-MEL-5 melanoma = tested on: SK-MEL-5 melanoma
SK-MEL-28 melanoma = tested on: SK-MEL-28 melanoma
KM12 colon = tested on: KM12 colon
SR leukemia = tested on: SR leukemia
MDA-MB-435 = tested on: MDA-MB-435
SN12C renal = tested on: SN12C renal
MALME-3M melanoma = tested on: MALME-3M melanoma
SK-MEL-2 melanoma = tested on: SK-MEL-2 melanoma
OVCAR-3 ovarian = tested on: OVCAR-3 ovarian
OVCAR-5 ovarian = tested on: OVCAR-5 ovarian
NCI-H226 lung = tested on: NCI-H226 lung
SK-OV-3 ovarian = tested on: SK-OV-3 ovarian
MDA-N = tested on: MDA-N
786-0 renal = tested on: 786-0 renal
NCI-H23 lung = tested on: NCI-H23 lung
HS 578T breast = tested on: HS 578T breast
HCT-15 colon = tested on: HCT-15 colon
EKVX NSCLC = tested on: EKVX NSCLC
RPMI-8226 leukemia = tested on: RPMI-8226 leukemia
SNB-19 CNS = tested on: SNB-19 CNS
K-562 leukemia = tested on: K-562 leukemia
SF-295 CNS = tested on: SF-295 CNS
CAKI-1 renal = tested on: CAKI-1 renal
MDA-MB-231 breast = tested on: MDA-MB-231 breast
HOP-62 NSCLC = tested on: HOP-62 NSCLC
BT-549 breast = tested on: BT-549 breast
NCI/ADR-RES ovarian = tested on: NCI/ADR-RES ovarian
DU-145 prostate = tested on: DU-145 prostate
HL-60(TB) leukemia = tested on: HL-60(TB) leukemia
SF-268 CNS = tested on: SF-268 CNS
UACC-257 melanoma = tested on: UACC-257 melanoma
A498 renal = tested on: A498 renal
ACHN renal = tested on: ACHN renal
LOX IMVI melanoma = tested on: LOX IMVI melanoma
MCF7 breast = tested on: MCF7 breast
SF-539 CNS = tested on: SF-539 CNS
M14 melanoma = tested on: M14 melanoma
UO-31 renal = tested on: UO-31 renal
CCRF-CEM leukemia = tested on: CCRF-CEM leukemia
HCT-116 colon = tested on: HCT-116 colon
TK-10 renal = tested on: TK-10 renal
SNB-75 CNS = tested on: SNB-75 CNS
A549 NSCLC = tested on: A549 NSCLC

## NNC(=O)CCc1ccc2ccc3ccccc3c2c1
SW-620 colon
  TGI: > 100 µM
PC-3 prostate
  TGI: > 100 µM
OVCAR-4 ovarian
  TGI: > 100 µM
COLO 205 colon
  TGI: > 100 µM
MOLT-4 leukemia
  TGI: > 100 µM
UACC-62 melanoma
  TGI: > 100 µM
HT29 colon
  TGI: > 100 µM
RXF 393 renal
  TGI: > 100 µM
OVCAR-8 ovarian
  TGI: > 100 µM
HOP-92 NSCLC
  TGI: > 100 µM
T-47D breast
  TGI: > 100 µM
NCI-H522 lung
  TGI: > 100 µM
U251 CNS
  TGI: > 100 µM
IGROV1 ovarian
  TGI: > 100 µM
HCC-2998 colon
  TGI: > 100 µM
NCI-H460 lung
  TGI: > 100 µM
SK-MEL-5 melanoma
  TGI: > 100 µM
SK-MEL-28 melanoma
  TGI: > 100 µM
KM12 colon
  TGI: > 100 µM
SR leukemia
  TGI: > 100 µM
MDA-MB-435
  TGI: > 100 µM
SN12C renal
  TGI: > 100 µM
MALME-3M melanoma
  TGI: > 100 µM
SK-MEL-2 melanoma
  TGI: > 100 µM
OVCAR-3 ovarian
  TGI: > 100 µM
OVCAR-5 ovarian
  TGI: > 100 µM
NCI-H226 lung
  TGI: > 100 µM
SK-OV-3 ovarian
  TGI: > 100 µM
MDA-N
  TGI: > 100 µM
786-0 renal
  TGI: > 100 µM
NCI-H23 lung
  TGI: > 100 µM
HS 578T breast
  TGI: > 100 µM
HCT-15 colon
  TGI: > 100 µM
EKVX NSCLC
  TGI: 97.9 µM
RPMI-8226 leukemia
  TGI: > 100 µM
SNB-19 CNS
  TGI: > 100 µM
K-562 leukemia
  TGI: > 100 µM
SF-295 CNS
  TGI: > 100 µM
CAKI-1 renal
  TGI: > 100 µM
MDA-MB-231 breast
  TGI: > 100 µM
HOP-62 NSCLC
  TGI: > 100 µM
BT-549 breast
  TGI: > 100 µM
NCI/ADR-RES ovarian
  TGI: > 100 µM
DU-145 prostate
  TGI: > 100 µM
HL-60(TB) leukemia
  TGI: > 100 µM
SF-268 CNS
  TGI: > 100 µM
UACC-257 melanoma
  TGI: > 100 µM
A498 renal
  TGI: > 100 µM
ACHN renal
  TGI: > 100 µM
LOX IMVI melanoma
  TGI: > 100 µM
MCF7 breast
  TGI: > 100 µM
SF-539 CNS
  TGI: > 100 µM
M14 melanoma
  TGI: > 100 µM
UO-31 renal
  TGI: > 100 µM
CCRF-CEM leukemia
  TGI: > 100 µM
HCT-116 colon
  TGI: > 100 µM
TK-10 renal
  TGI: > 100 µM

## Cc1nc2c(O)c3c(c(O)c2nc1C)C1C=CC3CC1
SW-620 colon
  TGI: 30.3 µM
PC-3 prostate
  TGI: 35.9 µM
OVCAR-4 ovarian
  TGI: 6.22 µM
COLO 205 colon
  TGI: 38.4 µM
MOLT-4 leukemia
  TGI: 2.9 µM
UACC-62 melanoma
  TGI: 67.2 µM
HT29 colon
  TGI: 55.9 µM
RXF 393 renal
  TGI: 22.6 µM
OVCAR-8 ovarian
  TGI: 20.9 µM
HOP-92 NSCLC
  TGI: 7.75 µM
T-47D breast
  TGI: 7 µM
NCI-H522 lung
  TGI: 37.5 µM
U251 CNS
  TGI: 21.6 µM
IGROV1 ovarian
  TGI: 17.9 µM
HCC-2998 colon
  TGI: > 59.2 µM
NCI-H460 lung
  TGI: > 72.6 µM
SK-MEL-5 melanoma
  TGI: 27.7 µM
SK-MEL-28 melanoma
  TGI: 30.8 µM
KM12 colon
  TGI: 31.5 µM
SR leukemia
  TGI: > 90.8 µM
MDA-MB-435
  TGI: 6.2 µM
SN12C renal
  TGI: 27.4 µM
MALME-3M melanoma
  TGI: 26.1 µM
SK-MEL-2 melanoma
  TGI: 33 µM
OVCAR-3 ovarian
  TGI: 21.2 µM
OVCAR-5 ovarian
  TGI: 34.9 µM
NCI-H226 lung
  TGI: 56.2 µM
SK-OV-3 ovarian
  TGI: 55.2 µM
MDA-N
  TGI: 7.37 µM
786-0 renal
  TGI: 27.6 µM
NCI-H23 lung
  TGI: 26.5 µM
HS 578T breast
  TGI: 78.3 µM
HCT-15 colon
  TGI: 34.8 µM
EKVX NSCLC
  TGI: 24.6 µM
RPMI-8226 leukemia
  TGI: 15.4 µM
SNB-19 CNS
  TGI: > 100 µM
K-562 leukemia
  TGI: 4.31 µM
SF-295 CNS
  TGI: 47.2 µM
CAKI-1 renal
  TGI: 14.9 µM
MDA-MB-231 breast
  TGI: 10.1 µM
HOP-62 NSCLC
  TGI: 36.4 µM
BT-549 breast
  TGI: 30.4 µM
NCI/ADR-RES ovarian
  TGI: 18.5 µM
DU-145 prostate
  TGI: > 100 µM
HL-60(TB) leukemia
  TGI: 2.66 µM
SF-268 CNS
  TGI: 32.9 µM
UACC-257 melanoma
  TGI: 18.2 µM
SNB-75 CNS
  TGI: > 92.6 µM
A498 renal
  TGI: 81.5 µM
ACHN renal
  TGI: 28.5 µM
LOX IMVI melanoma
  TGI: 9.95 µM
MCF7 breast
  TGI: 25.4 µM
SF-539 CNS
  TGI: 22 µM
M14 melanoma
  TGI: 29.4 µM
UO-31 renal
  TGI: 24.8 µM
A549 NSCLC
  TGI: 63.5 µM
CCRF-CEM leukemia
  TGI: 3.53 µM
HCT-116 colon
  TGI: 17.3 µM
TK-10 renal
  TGI: 40.8 µM

## C[C@H](CCC(=O)NCCS(=O)(=O)O)[C@H]1CC[C@H]2[C@@H]3[C@H](O)C[C@@H]4C[C@H](O)CC[C@]4(C)[C@H]3CC[C@]12C
SW-620 colon
  TGI: > 100 µM
PC-3 prostate
  TGI: > 100 µM
OVCAR-4 ovarian
  TGI: > 100 µM
COLO 205 colon
  TGI: > 100 µM
MOLT-4 leukemia
  TGI: > 100 µM
UACC-62 melanoma
  TGI: > 100 µM
HT29 colon
  TGI: > 100 µM
RXF 393 renal
  TGI: > 100 µM
OVCAR-8 ovarian
  TGI: > 100 µM
HOP-92 NSCLC
  TGI: > 100 µM
T-47D breast
  TGI: > 100 µM
NCI-H522 lung
  TGI: > 100 µM
U251 CNS
  TGI: > 100 µM
IGROV1 ovarian
  TGI: > 100 µM
HCC-2998 colon
  TGI: > 100 µM
NCI-H460 lung
  TGI: > 100 µM
SK-MEL-5 melanoma
  TGI: > 100 µM
SK-MEL-28 melanoma
  TGI: > 100 µM
KM12 colon
  TGI: > 100 µM
SR leukemia
  TGI: > 100 µM
MDA-MB-435
  TGI: > 100 µM
SN12C renal
  TGI: > 100 µM
MALME-3M melanoma
  TGI: > 100 µM
SK-MEL-2 melanoma
  TGI: > 100 µM
OVCAR-3 ovarian
  TGI: > 100 µM
OVCAR-5 ovarian
  TGI: > 100 µM
NCI-H226 lung
  TGI: > 100 µM
SK-OV-3 ovarian
  TGI: > 100 µM
MDA-N
  TGI: > 100 µM
786-0 renal
  TGI: > 100 µM
NCI-H23 lung
  TGI: > 100 µM
HS 578T breast
  TGI: > 100 µM
HCT-15 colon
  TGI: > 100 µM
EKVX NSCLC
  TGI: > 100 µM
RPMI-8226 leukemia
  TGI: > 100 µM
SNB-19 CNS
  TGI: > 100 µM
K-562 leukemia
  TGI: > 100 µM
SF-295 CNS
  TGI: > 100 µM
CAKI-1 renal
  TGI: > 100 µM
MDA-MB-231 breast
  TGI: > 100 µM
HOP-62 NSCLC
  TGI: > 100 µM
BT-549 breast
  TGI: > 100 µM
NCI/ADR-RES ovarian
  TGI: > 100 µM
DU-145 prostate
  TGI: > 100 µM
HL-60(TB) leukemia
  TGI: > 100 µM
SF-268 CNS
  TGI: > 100 µM
UACC-257 melanoma
  TGI: > 100 µM
A498 renal
  TGI: > 100 µM
ACHN renal
  TGI: > 100 µM
LOX IMVI melanoma
  TGI: > 100 µM
MCF7 breast
  TGI: > 100 µM
SF-539 CNS
  TGI: > 100 µM
M14 melanoma
  TGI: > 100 µM
UO-31 renal
  TGI: > 100 µM
A549 NSCLC
  TGI: > 100 µM
CCRF-CEM leukemia
  TGI: > 100 µM
HCT-116 colon
  TGI: > 100 µM
TK-10 renal
  TGI: > 100 µM
